ChEMBL document CHEMBL1147435, “Synthesis and antibiotic activity of the tricyclic furo[3,2-c] isochromen-2-trione unit of the pyranonaphthoquinones” (2004)
≈ marks a conversion by molar mass, not a printed value.

Experiments:
Assay type in all cases: functional
Bacillus subtilis [1] = test: Minimum bactericidal concentration of compound against Bacillus subtilis
Staphylococcus aureus [2] = test: Minimum bactericidal concentration of compound against Staphylococcus aureus
Staphylococcus aureus [3] = test: Minimum inhibitory concentration of compound against Staphylococcus aureus
Bacillus subtilis [4] = test: Minimum inhibitory concentration of compound against Bacillus subtilis

| SMILES | MBC (Bacillus subtilis [1]) [µg/mL] | MBC (Staphylococcus aureus [2]) [µg/mL] | MIC (Staphylococcus aureus [3]) [µg/mL] | MIC (Bacillus subtilis [4]) [µg/mL] |
| --- | --- | --- | --- | --- |
| COc1ccc2c(c1OC)COC1CC(=O)OC21 (stereo not drawn) | > 128 | > 128 | 128 (≈ 511 µM) | 128 (≈ 511 µM) |
| COC1=CC(=O)C2=C(COC3CC(=O)OC23)C1=O (stereo not drawn) | 128 (≈ 512 µM) | > 128 | 64 (≈ 256 µM) | 32 (≈ 128 µM) |
